The values below come from patent publication US11576922B2, “CD73 inhibitors” (ORIC Pharmaceuticals, Inc., priority 2017, dated 2023).

Broadly, the IC50 is the concentration that inhibits the measured activity by half.

Several values for one entry are separate records, joined by “and”; a condition that tells them apart may be missing. Identical values can stand only once. A value given as a limit tells only on which side of the number the result lay.

For this experiment, the target named is T1, CD73 (Homo sapiens, UniProt P21589).
T1 sequence (P21589 27-549): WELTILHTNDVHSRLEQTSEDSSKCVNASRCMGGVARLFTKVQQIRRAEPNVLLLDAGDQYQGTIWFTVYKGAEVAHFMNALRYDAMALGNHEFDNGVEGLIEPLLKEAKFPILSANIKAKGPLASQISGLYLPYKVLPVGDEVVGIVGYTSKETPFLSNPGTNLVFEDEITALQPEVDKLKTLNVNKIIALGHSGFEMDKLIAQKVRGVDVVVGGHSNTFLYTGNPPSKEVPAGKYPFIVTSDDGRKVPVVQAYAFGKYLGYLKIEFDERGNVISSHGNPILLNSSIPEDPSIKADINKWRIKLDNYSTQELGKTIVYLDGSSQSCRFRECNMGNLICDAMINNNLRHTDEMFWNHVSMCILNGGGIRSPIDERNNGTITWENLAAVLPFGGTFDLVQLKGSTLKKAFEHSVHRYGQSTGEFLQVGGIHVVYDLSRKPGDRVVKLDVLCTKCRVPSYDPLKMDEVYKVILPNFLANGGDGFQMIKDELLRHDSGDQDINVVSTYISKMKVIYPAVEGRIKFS
Description: Example A1: Biochemical Assay (CD73 inhibition, Malachite Green detection of AMP hydrolysis). As to conditions: CD73 0.3208 nM, AMP 15 μM, Tris-HCl pH 7.4, Malachite Green, absorbance 620 nm; read-out: Biochemical IC50. The protocol:
Example A1: Biochemical Assay
Assay Reaction Conditions
• Assay Volume: 70 μl • Reaction Volume: 50 μl • CD73: 0.3208 nM • AMP: 15 μM • Assay Buffer: 2 5 mM Tris-HCL, pH 7.4, 0.01% Brij-35, 0.01% BSA, 5 mM MgCl2 Assay Procedure:
Made dose titration of testing compounds in assay buffer, 10 points ½ log titrations in duplicates starting at 100 μM.
Added 25 μl of CD73 to each well for a final concentration of […].
Incubated at RT for 15 min.
Added 25 μl of AMP to each well for a final concentration of 15 μM.
Incubated at RT for 10 min.
Added 10 μl of Malachite Green Reagent A, incubate at RT for 10 min.
Added 10 μl of Malachite Green Reagent B, incubate at RT for 45 min.
Read the Absorbance on Envision plate reader using excitation filter: Cy5 […].
The ability of the compounds disclosed herein to inhibit CD73 activity was quantified and the respective IC50 values were determined. Table 1 provides the biochemical IC50 values of compounds disclosed herein.
On to `O=P(O)(O)CP(=O)(O)OC[C@H]1O[C@@H](n2nnc3c(N4CCC[C@@H]4c4ccccc4)nc(Cl)nc32)[C@H](O)[C@@H]1O` [Example 17, (((((2R,3S,4R,5R)-5-(5-chloro-7-((R)-2-phenylpyrrolidin-1-yl)-3H-[1,2,3]triazolo[4,5-d]pyrimidin-3-yl)-3,4-dihydroxytetrahydrofuran-2-yl)methoxy)(hydroxy)phosphoryl)methyl) phosphonic acid], for which the IC50 was 100 to 1000 nM.
With `O=P(O)(O)CP(=O)(O)OC[C@H]1O[C@@H](n2nnc3c(N4CCCC[C@@H]4c4ccccc4)nc(Cl)nc32)[C@H](O)[C@@H]1O` [Example 10, (((((2R,3S,4R,5R)-5-(5-chloro-7-((R)-2-phenylpiperidin-1-yl)-3H-[1,2,3]triazolo[4,5-d]pyrimidin-3-yl)-3,4-dihydroxytetrahydrofuran-2-yl)methoxy)(hydroxy)phosphoryl)methyl) phosphonic acid] the figure was 100 to 1000 nM; with `O=P(O)(O)CP(=O)(O)OC[C@@H]1C[C@@H](O)[C@H](n2ncc3c(NCc4ccccc4Cl)nc(Cl)nc32)O1` [Example 48, (((((2S,4R,5R)-5-(6-chloro-4-((2-chlorobenzyl)amino)-1H-pyrazolo[3,4-d]pyrimidin-1-yl)-4-hydroxytetrahydrofuran-2-yl)methoxy)(hydroxy)phosphoryl)methyl) phosphonic acid], under 100 nM.
On to `Cc1nn([C@@H]2O[C@H](COP(=O)(O)CP(=O)(O)O)[C@@H](O)[C@H]2O)c2nc(Cl)nc(NCc3ccccc3Cl)c12` [Example 44, (((((2R,3S,4R,5R)-5-(6-chloro-4-((2-chlorobenzyl)amino)-3-methyl-1H-pyrazolo[3,4-d]pyrimidin-1-yl)-3,4-dihydroxytetrahydrofuran-2-yl)methoxy)(hydroxy)phosphoryl)methyl) phosphonic acid], for which the half-inhibitory concentration (IC50) is under 100 nM.
The same measure for `O=P(O)(O)CP(=O)(O)OC[C@H]1O[C@@H](n2ncc3c(NCc4ccccc4Cl)nc(Cl)nc32)C[C@@H]1O` [Example 41, (((((2R,3S,5R)-5-(6-chloro-4-((2-chlorobenzyl)amino)-1H-pyrazolo[3,4-d]pyrimidin-1-yl)-3-hydroxytetrahydrofuran-2-yl)methoxy)(hydroxy)phosphoryl)methyl) phosphonic acid]: 100 to 1000 nM; for `O=P(O)(O)CP(=O)(O)OC[C@H]1C[C@@H](n2nnc3c(NCc4ccccc4Cl)nc(Cl)nc32)[C@H](O)[C@@H]1O` [Example 2, (((((1R,2R,3S,4R)-4-(5-chloro-7-((2-chlorobenzyl)amino)-3H-[1,2,3]triazolo[4,5-d]pyrimidin-3-yl)-2,3-dihydroxycyclopentyl)methoxy)(hydroxy)phosphoryl)methyl)phosphonic acid]: 100 to 1000 nM; for `CN(c1nc(Cl)nc2c1cnn2[C@@H]1O[C@H](COP(=O)(O)CP(=O)(O)O)[C@@H](O)[C@H]1O)[C@@H]1CCc2ccccc21` [Example 50, (((((2R,3S,4R,5R)-5-(6-chloro-4-(((R)-2,3-dihydro-1H-inden-1-yl)(methyl)amino)-1H-pyrazolo[3,4-d]pyrimidin-1-yl)-3,4-dihydroxytetrahydrofuran-2-yl)methoxy)(hydroxy)phosphoryl)methyl) phosphonic acid]: under 100 nM.
With `O=P(O)(O)CP(=O)(O)OC[C@H]1O[C@@H](n2nnc3c(N4CCCC[C@H]4c4ccccc4)nc(Cl)nc32)[C@H](O)[C@@H]1O` [Example 16, (((((2R,3S,4R,5R)-5-(5-chloro-7-((S)-2-phenylpiperidin-1-yl)-3H-[1,2,3]triazolo[4,5-d]pyrimidin-3-yl)-3,4-dihydroxytetrahydrofuran-2-yl)methoxy)(hydroxy)phosphoryl)methyl) phosphonic acid] the figure was under 100 nM; with `CCOP(=O)(CP(=O)(O)O)OC[C@H]1O[C@@H](n2nnc3c(NCc4ccccc4Cl)nc(Cl)nc32)[C@H](O)[C@@H]1O` (stereo partly drawn) [Example 25, (((((2R,3S,4R,5R)-5-(5-chloro-7-((2-chlorobenzyl)amino)-3H-[1,2,3]triazolo[4,5-d]pyrimidin-3-yl)-3,4-dihydroxytetrahydrofuran-2-yl)methoxy)(ethoxy)phosphoryl)methyl) phosphonic acid], 100 to 1000 nM; with `O=P(O)(O)CP(=O)(O)OC[C@H]1CC(n2nnc3c(NC4CCc5ccccc54)nc(Cl)nc32)[C@H](O)[C@@H]1O` (stereo in doubt) [Example 35, (((((1R,2R,3S,4S)-4-(5-chloro-7-(((S)-2,3-dihydro-1H-inden-1-yl)amino)-3H-[1,2,3]triazolo[4,5-d]pyrimidin-3-yl)-2,3-dihydroxycyclopentyl)methoxy) (hydroxy)phosphoryl)methyl)phosphonic acid], < 100 nM and 100 to 1000 nM.
The same measure for `COP(=O)(CP(=O)(O)O)OC[C@H]1OC(n2nnc3c(NC4CCc5ccccc54)nc(Cl)nc32)[C@H](O)[C@@H]1O` (stereo partly drawn) [Example 34, (((((2R,3S,4R,5S)-5-(5-chloro-7-(((S)-2,3-dihydro-1H-inden-1-yl)amino)-3H-[1,2,3]triazolo[4,5-d]pyrimidin-3-yl)-3,4-dihydroxytetrahydrofuran-2-yl)methoxy)(methoxy)phosphoryl)methyl) phosphonic acid]: 100 to 1000 nM; for `C[C@@]1(O)[C@@H](COP(=O)(O)CP(=O)(O)O)O[C@@H](n2ncc3c(NCc4ccccc4Cl)nc(Cl)nc32)[C@@H]1O` [Example 40, (((((2R,3S,4R,5R)-5-(6-Chloro-4-((2-chlorobenzyl)amino)-1H-pyrazolo[3,4-d]pyrimidin-1-yl)-3,4-dihydroxy-3-methyltetrahydrofuran-2-yl)methoxy)(hydroxy)phosphoryl)methyl)phosphonic acid]: under 100 nM.
